According to ChEMBL document CHEMBL4507291 (2021):

Tests used:
[1] = biological target: TGF-beta receptor type-2 (Homo sapiens) (UniProt P37173)
[2] = biological target: Death-associated protein kinase 1 (Homo sapiens) (UniProt P53355)
[3] = biological target: Cyclin-dependent kinase 18 (Homo sapiens) (UniProt Q07002)
[4] = biological target: Receptor tyrosine-protein kinase erbB-4 (Homo sapiens) (UniProt Q15303)
[5] = system: Epidermal growth factor receptor (Homo sapiens), P00533 [UNDEFINED MUTATION]
[6] = biological target: Serine/threonine-protein kinase 33 (Homo sapiens) (UniProt Q9BYT3)
[7] = biological target: T1, Dual specificity protein kinase TTK (Homo sapiens) (UniProt P33981)
T1 sequence (whole entry): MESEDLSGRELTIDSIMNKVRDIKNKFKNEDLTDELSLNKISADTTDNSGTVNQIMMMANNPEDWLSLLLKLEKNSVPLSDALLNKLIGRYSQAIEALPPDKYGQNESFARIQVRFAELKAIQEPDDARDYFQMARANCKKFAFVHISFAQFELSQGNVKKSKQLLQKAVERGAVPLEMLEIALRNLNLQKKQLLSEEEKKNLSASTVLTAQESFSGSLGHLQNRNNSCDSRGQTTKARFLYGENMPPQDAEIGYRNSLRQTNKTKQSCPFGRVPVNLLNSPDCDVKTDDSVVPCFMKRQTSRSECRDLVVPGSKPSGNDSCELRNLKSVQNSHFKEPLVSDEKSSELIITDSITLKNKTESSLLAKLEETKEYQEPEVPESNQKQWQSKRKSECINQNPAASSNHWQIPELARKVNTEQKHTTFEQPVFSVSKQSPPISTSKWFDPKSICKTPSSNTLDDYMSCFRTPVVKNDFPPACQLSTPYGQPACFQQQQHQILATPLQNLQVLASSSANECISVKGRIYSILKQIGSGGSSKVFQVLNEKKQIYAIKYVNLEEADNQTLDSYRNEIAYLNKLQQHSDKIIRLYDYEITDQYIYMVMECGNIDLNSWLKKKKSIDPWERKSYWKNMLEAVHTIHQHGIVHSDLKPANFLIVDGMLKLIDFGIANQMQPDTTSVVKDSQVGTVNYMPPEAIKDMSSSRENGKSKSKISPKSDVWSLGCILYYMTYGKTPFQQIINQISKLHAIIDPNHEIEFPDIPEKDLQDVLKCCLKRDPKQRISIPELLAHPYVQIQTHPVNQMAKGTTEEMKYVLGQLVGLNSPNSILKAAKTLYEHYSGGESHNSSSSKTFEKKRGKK

[8] = system: Epidermal growth factor receptor (Homo sapiens), P00533 [T790M]
[9] = biological target: Serine/threonine-protein kinase Nek7 (Homo sapiens) (UniProt Q8TDX7)
[10] = biological target: Serine/threonine-protein kinase/endoribonuclease IRE1 (Homo sapiens) (UniProt O75460)
[11] = biological target: T2, Serine/threonine-protein kinase Sgk1 (Homo sapiens) (UniProt O00141)
T2 sequence (whole entry): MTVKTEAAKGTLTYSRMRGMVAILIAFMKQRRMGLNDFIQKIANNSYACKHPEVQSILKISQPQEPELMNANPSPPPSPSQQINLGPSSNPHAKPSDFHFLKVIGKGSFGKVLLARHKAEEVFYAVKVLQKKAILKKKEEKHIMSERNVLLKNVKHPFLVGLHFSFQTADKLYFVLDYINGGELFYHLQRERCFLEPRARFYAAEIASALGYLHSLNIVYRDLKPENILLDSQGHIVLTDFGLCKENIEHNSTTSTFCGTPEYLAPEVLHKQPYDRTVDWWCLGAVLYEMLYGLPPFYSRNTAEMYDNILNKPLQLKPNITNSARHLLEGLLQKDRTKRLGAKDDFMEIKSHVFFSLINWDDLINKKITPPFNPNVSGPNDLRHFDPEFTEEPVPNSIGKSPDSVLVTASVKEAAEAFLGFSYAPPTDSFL

[12] = biological target: cAMP-dependent protein kinase catalytic subunit alpha (Homo sapiens) (UniProt P17612)
[13] = biological target: T3, cAMP-dependent protein kinase catalytic subunit PRKX (Homo sapiens) (UniProt P51817)
T3 sequence (whole entry): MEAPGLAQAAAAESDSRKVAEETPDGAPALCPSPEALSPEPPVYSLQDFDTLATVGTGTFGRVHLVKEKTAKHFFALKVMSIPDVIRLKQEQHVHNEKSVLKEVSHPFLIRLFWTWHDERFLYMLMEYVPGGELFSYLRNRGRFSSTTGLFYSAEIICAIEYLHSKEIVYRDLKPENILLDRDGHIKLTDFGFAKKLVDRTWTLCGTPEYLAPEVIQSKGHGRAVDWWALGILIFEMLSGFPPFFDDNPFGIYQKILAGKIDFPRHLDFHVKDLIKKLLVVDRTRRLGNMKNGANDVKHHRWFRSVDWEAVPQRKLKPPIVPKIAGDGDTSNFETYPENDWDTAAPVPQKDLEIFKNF

[14] = biological target: 5-hydroxytryptamine receptor 1B (Homo sapiens) (UniProt P28222); settings: Compound concentration 10.0 uM
[15] = biological target: Glycogen synthase kinase-3 alpha (Homo sapiens) (UniProt P49840)
[16] = biological target: Mitogen-activated protein kinase kinase kinase kinase 1 (Homo sapiens) (UniProt Q92918)
[17] = biological target: Fibroblast growth factor receptor 3 (Homo sapiens) (UniProt P22607)
[18] = Compound concentration 1000.0 nM
[19] = Compound concentration 100.0 nM

Chain of Serine/threonine-protein kinase 33 (Homo sapiens) (Q9BYT3 whole entry, looked up): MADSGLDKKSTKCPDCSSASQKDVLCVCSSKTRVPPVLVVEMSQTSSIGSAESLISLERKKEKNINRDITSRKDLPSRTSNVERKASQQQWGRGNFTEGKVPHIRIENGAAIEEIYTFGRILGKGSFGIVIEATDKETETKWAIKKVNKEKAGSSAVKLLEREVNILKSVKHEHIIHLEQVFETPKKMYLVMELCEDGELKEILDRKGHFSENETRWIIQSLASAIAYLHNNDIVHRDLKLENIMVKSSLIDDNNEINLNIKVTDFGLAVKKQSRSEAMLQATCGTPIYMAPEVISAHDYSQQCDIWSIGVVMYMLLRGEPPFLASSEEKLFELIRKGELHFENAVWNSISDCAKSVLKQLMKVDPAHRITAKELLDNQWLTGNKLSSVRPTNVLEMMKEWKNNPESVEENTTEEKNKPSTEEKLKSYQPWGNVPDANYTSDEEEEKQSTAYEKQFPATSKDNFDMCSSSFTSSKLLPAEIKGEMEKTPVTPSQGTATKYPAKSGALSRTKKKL
Chain of Fibroblast growth factor receptor 3 (Homo sapiens) (P22607 23-806 limits assumed): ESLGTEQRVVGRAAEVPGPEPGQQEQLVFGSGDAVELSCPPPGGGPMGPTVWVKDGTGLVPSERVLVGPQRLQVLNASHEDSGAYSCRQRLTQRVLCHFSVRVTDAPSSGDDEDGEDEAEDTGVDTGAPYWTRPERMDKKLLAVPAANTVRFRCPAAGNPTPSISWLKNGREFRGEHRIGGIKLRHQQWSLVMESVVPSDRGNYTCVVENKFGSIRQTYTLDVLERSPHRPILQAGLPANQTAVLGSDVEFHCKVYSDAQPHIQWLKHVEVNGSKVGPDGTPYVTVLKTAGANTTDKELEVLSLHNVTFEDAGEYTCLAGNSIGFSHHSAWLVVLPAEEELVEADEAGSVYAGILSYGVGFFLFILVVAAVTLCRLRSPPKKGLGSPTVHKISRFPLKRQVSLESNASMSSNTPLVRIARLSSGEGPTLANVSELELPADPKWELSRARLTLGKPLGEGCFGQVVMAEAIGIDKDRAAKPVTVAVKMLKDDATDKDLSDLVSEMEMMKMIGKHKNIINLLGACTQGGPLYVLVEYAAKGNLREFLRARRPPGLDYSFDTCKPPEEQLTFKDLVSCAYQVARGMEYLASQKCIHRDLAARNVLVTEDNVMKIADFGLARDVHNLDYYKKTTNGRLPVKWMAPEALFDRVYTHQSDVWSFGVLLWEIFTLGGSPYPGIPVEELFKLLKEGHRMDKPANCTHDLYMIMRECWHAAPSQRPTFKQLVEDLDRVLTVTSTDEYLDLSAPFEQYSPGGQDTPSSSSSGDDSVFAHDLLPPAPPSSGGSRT
Chain of Serine/threonine-protein kinase Nek7 (Homo sapiens) (Q8TDX7 whole entry, looked up): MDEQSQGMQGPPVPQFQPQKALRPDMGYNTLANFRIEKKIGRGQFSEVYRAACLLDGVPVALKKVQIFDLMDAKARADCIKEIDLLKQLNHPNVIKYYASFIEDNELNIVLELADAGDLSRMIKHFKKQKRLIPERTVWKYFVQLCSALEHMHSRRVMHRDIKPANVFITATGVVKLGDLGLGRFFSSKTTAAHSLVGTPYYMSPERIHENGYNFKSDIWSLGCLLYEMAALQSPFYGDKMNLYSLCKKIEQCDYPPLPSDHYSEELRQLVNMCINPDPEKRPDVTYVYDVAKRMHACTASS
Chain of Death-associated protein kinase 1 (Homo sapiens) (P53355 whole entry, looked up): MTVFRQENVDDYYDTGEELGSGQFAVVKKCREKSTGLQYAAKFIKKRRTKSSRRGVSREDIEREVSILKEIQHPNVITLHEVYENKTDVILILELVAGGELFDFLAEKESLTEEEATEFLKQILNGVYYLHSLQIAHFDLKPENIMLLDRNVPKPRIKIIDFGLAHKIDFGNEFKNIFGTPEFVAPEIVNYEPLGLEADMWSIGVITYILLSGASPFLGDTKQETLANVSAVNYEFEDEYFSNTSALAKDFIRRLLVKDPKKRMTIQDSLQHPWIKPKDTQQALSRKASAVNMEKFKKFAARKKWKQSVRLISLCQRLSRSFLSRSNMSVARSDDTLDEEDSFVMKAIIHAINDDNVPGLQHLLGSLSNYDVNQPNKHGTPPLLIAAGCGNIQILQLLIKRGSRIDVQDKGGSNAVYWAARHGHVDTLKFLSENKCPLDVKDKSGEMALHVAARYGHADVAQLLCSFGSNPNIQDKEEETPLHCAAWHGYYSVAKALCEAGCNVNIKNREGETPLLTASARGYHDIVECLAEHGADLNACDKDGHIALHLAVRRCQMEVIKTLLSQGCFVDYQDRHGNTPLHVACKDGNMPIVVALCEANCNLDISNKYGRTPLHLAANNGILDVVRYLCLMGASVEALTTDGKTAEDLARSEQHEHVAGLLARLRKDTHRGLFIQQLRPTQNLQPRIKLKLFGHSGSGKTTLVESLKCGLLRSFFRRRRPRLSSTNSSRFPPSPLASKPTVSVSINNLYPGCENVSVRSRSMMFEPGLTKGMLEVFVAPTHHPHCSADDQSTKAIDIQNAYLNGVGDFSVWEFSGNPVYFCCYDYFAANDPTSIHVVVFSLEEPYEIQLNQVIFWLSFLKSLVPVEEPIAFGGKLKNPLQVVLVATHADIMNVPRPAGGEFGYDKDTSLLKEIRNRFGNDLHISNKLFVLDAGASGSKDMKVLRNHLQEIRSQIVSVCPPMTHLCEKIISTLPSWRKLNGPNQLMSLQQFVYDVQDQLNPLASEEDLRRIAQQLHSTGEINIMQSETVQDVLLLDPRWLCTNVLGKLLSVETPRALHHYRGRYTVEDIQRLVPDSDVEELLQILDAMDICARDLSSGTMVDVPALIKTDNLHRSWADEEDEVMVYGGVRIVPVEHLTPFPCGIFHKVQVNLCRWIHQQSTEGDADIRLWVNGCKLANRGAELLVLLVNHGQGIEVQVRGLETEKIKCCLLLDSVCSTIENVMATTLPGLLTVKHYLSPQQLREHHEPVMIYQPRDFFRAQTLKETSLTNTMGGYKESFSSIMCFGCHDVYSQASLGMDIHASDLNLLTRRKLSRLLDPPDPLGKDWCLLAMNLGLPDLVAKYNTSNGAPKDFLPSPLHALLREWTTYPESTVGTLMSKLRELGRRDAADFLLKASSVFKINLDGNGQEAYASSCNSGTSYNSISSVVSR
Chain of Cyclin-dependent kinase 18 (Homo sapiens) (Q07002 whole entry): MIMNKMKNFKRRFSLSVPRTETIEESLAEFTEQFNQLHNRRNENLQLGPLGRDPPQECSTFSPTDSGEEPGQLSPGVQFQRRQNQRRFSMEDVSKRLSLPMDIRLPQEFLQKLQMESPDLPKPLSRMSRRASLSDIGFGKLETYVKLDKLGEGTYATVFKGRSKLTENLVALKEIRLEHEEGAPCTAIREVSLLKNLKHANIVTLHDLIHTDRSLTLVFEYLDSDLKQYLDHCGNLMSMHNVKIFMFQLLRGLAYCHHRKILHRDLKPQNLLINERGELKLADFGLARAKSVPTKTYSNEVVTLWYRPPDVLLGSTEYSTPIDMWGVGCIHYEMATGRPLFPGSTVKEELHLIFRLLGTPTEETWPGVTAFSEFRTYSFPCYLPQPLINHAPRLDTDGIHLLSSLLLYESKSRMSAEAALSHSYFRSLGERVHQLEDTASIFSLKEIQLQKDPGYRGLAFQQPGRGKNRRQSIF
Chain of TGF-beta receptor type-2 (Homo sapiens) (P37173 whole entry): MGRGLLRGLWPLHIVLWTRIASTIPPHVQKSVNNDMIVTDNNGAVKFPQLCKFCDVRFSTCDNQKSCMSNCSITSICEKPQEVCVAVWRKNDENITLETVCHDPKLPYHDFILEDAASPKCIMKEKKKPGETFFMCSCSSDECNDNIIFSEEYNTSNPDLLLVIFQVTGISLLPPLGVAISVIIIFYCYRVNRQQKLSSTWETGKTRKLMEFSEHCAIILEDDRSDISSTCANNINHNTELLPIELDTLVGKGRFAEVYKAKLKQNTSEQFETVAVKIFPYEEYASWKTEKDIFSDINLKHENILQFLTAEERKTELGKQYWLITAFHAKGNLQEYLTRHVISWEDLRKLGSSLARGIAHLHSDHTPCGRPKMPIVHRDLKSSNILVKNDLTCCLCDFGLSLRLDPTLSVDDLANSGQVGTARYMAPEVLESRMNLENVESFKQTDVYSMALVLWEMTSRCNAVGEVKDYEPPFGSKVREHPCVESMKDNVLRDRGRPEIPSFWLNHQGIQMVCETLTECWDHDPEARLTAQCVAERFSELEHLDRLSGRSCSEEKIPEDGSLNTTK
Chain of Mitogen-activated protein kinase kinase kinase kinase 1 (Homo sapiens) (Q92918 whole entry, looked up): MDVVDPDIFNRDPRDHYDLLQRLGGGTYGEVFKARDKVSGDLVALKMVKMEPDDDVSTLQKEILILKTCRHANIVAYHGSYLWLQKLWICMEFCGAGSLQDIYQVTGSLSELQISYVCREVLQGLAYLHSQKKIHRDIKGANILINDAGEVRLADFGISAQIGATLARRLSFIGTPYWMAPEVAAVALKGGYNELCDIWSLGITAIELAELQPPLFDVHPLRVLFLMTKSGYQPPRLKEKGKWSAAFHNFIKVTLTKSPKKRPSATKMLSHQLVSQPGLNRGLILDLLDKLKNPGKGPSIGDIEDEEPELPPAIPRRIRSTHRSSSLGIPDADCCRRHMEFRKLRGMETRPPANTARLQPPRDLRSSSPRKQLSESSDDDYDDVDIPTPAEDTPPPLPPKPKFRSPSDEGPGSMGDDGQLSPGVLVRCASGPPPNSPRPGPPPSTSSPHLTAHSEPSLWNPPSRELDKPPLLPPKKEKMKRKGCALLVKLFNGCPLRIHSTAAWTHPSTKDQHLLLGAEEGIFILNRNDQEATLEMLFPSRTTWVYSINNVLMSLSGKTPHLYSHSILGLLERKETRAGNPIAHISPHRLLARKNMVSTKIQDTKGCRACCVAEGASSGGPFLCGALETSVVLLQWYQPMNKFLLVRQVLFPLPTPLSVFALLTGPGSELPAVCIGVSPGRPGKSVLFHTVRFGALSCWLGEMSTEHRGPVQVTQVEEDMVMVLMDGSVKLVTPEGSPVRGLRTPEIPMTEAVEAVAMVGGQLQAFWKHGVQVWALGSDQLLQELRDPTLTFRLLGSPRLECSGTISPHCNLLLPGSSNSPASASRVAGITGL

C[C@@H]1CN(c2cc(-c3nn(C)c4ccc(OC5(C)CC5)cc34)ncn2)C[C@H](C)O1 [MLi-2-NC]
inactive: residual activity [1, 18] 73% | residual activity [2, 18] 100% | residual activity [3, 18] 100% | residual activity [4, 18] 96% | residual activity [5, 18] 67% | residual activity [6, 18] 86% | residual activity [7, 18] 100% | residual activity [8, 18] 100% | residual activity [9, 18] 79% | residual activity [10, 18] 69% | residual activity [12, 18] 95% | residual activity [13, 18] 92% | inhibition [14] 7.83% | residual activity [15, 18] 86% | residual activity [16, 18] 100% | residual activity [17, 18] 100%
active: residual activity [11, 18] 47%

C[C@@H]1CN(c2cc(-c3n[nH]c4ccc(OC5(C)CC5)cc34)ncn2)C[C@H](C)O1 [MLi-2]
inactive: residual activity [1, 19] 100% | residual activity [2, 19] 93% | residual activity [3, 19] 100% | residual activity [4, 19] 90% | residual activity [5, 19] 53% | residual activity [6, 19] 86% | residual activity [7, 19] 74% | residual activity [8, 19] 100% | residual activity [9, 19] 100% | residual activity [10, 19] 79% | residual activity [11, 19] 89% | residual activity [12, 19] 85% | residual activity [13, 19] 86% | inhibition [14] 1.16% | residual activity [15, 19] 100% | residual activity [16, 19] 84% | residual activity [17, 19] 74%
